The values that follow come from patent US8088930B2, “Benzimidazole derivatives” (Hoffmann-La Roche Inc., priority 2008, dated 2012).

This test deals with T1, FXR ligand binding domain (GST-FXR LBD fusion protein, human FXR aa 193-473) (Homo sapiens, UniProt Q96RI1).
T1 construct: fused on or other part: Glutathione-S-transferase (GST) fused N-terminally to the FXR LBD, used to capture the protein on glutathione SPA beads
T1 sequence (Q96RI1 211-486 limits assumed): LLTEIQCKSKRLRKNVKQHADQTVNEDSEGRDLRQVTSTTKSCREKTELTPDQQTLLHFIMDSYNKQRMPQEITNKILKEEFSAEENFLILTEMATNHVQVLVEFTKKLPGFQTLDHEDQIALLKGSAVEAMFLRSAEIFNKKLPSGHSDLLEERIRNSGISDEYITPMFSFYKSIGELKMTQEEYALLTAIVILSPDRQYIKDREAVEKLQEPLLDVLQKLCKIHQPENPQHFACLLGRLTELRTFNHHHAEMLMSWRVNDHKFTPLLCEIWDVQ
Briefly: Radioligand binding assay (scintillation proximity, radioligand displacement). The settings on record: 40 nM GST-FXR LBD on SPA beads, test compound 6×10^−9 M to 2.5×10^−5 M, read-out: h-IC50 Binding. As for the experimental part:
The following tests were carried out in order to determine the activity of the compounds of formula (I).
To accomplish this, the portions of the sequences encoding the FXR LBD were amplified by polymerase chain reaction (PCR) from a full-length clone by PCR and then subcloned into the plasmid vectors. The final clone was verified by DNA sequence analysis.
The induction, expression, and subsequent purification of GST-LBD fusion protein was performed in E. coli strain BL21(pLysS) cells by standard methods (Current Protocols in Molecular Biology, Wiley Press, ed. Ausubel et al.).
Radioligand Binding Assay
Binding of test substances to the FXR ligand binding domain was assessed in a radioligand displacement assay. The assay was performed in a buffer consisting of 50 mM Hepes, pH 7.4, 10 mM NaCl, 5 mM MgCl2, 0.01% CHAPS. For each reaction well in a 96-well plate, 40 nM of GST-FXR LBD fusion protein was bound to 10 μg glutathione yttrium silicate SPA beads (Pharmacia Amersham) in a final volume of 50 μl by shaking. A radioligand (e.g., 20 nM of 2,N-dicyclohexyl-2-[2-(2,4 dimethoxy-phenyl)-benzoimidazol-1-yl]-acetamide) and test compounds were added, and scintillation proximity counting was performed. All binding assays were performed in 96-well plates and the amount of bound ligand was measured on a Packard TopCount using OptiPlates (Packard).
In the case of `Cc1cc(-c2nnn[nH]2)cc(C)c1OCC(C1CCCCC1)n1c(-c2ccc(Cl)cc2)nc2cc(F)c(F)cc21` (single isomer, unassigned; (+)) [Example 72, (+)-2-(4-Chloro-phenyl)-1-{1-cyclohexyl-2-[2,6-dimethyl-4-(1H-tetrazol-5-yl)-phenoxy]-ethyl}-5,6-difluoro-1H-benzoimidazole], the concentration for half-maximal inhibition (IC50) is 1 nM.

For the compound `Fc1cc2nc(-c3ccc(Cl)cc3)n(C(COc3ccc(-c4nnn[nH]4)cn3)C3CCCCC3)c2cc1F` (stereo not drawn) [Example 56, 2-(4-Chloro-phenyl)-1-{1-cyclohexyl-2-[5-(1H-tetrazol-5-yl)-pyridin-2-yloxy]-ethyl}-5,6-difluoro-1H-benzoimidazole], the IC50 worked out at 50 nM.

Consider `O=C(O)C1(Oc2ccc(OCC(C3CCCCC3)n3c(-c4ccc(Cl)cc4)nc4cc(F)c(F)cc43)cc2)CCC1` (single isomer, unassigned; (-)) [Example 119, (−)-1-(4-{2-[2-(4-Chloro-phenyl)-5,6-difluoro-benzoimidazol-1-yl]-2-cyclohexyl-ethoxy}-phenoxy)-cyclobutanecarboxylic acid], for which the 50% inhibitory concentration (IC50) was determined as 110 nM.

For `Fc1cc2nc(-c3ccc(Cl)cc3)n(C(CNc3ccc(-c4nnn[nH]4)cc3)C3CCCCC3)c2cc1F` (stereo not drawn) [Example 139, {2-[2-(4-Chloro-phenyl)-5,6-difluoro-benzoimidazol-1-yl]-2-cyclohexyl-ethyl}-[4-(1H-tetrazol-5-yl)-phenyl]-amine], the IC50 turned out to be 3 nM.

Consider `O=C(O)COc1ccc(OCC(C2CCCCC2)n2c(-c3ccc(Cl)cc3)nc3cc(F)c(F)cc32)nc1` (stereo not drawn) [Example 45, (6-{2-[2-(4-Chloro-phenyl)-5,6-difluoro-benzoimidazol-1-yl]-2-cyclohexyl-ethoxy}-pyridin-3-yloxy)-acetic acid], for which the IC50 came to 20 nM.

Turning to `COc1ccc(-c2nc3cc(F)c(F)cc3n2C(COc2c(F)cc(C(=O)O)cc2F)C2CCCCC2)c(OC)n1` (single isomer, unassigned; (+)) [Example 97, (+)-4-{2-Cyclohexyl-2-[2-(2,6-dimethoxy-pyridin-3-yl)-5,6-difluoro-benzoimidazol-1-yl]-ethoxy}-3,5-difluoro-benzoic acid], the IC50 stood at 50 nM.

In the case of `O=C(O)c1cnc(OCC(C2CCCCC2)n2c(-c3ccc(Cl)cc3)nc3cc(F)c(F)cc32)c2ccsc12` (single isomer, unassigned; (-)) [Example 28, (−)-4-{2-[2-(4-Chloro-phenyl)-5,6-difluoro-benzoimidazol-1-yl]-2-cyclohexyl-ethoxy}-thieno[3,2-c]pyridine-7-carboxylic acid], the IC50 came to 40 nM.

For the compound `Fc1cc2nc(-c3ccc(Cl)cc3)n(C(COc3ccccn3)C3CCCCC3)c2cc1F` (stereo not drawn) [Example 29, 2-(4-Chloro-phenyl)-1-[1-cyclohexyl-2-(pyridin-2-yloxy)-ethyl]-5,6-difluoro-1H-benzoimidazole], the IC50 stood at 200 nM.

Take `COc1ccc(-c2nc3cc(F)c(F)cc3n2C(CCc2ccc(C(=O)O)cc2)C2CCCCC2)c(OC)n1` (stereo not drawn) [Example 145, 4-{3-Cyclohexyl-3-[2-(2,6-dimethoxy-pyridin-3-yl)-5,6-difluoro-benzoimidazol-1-yl]-propyl}-benzoic acid]: the IC50 came out at 0.3 nM.

In the case of `O=C(O)c1ccc(SCC(C2CCCCC2)n2c(-c3ccc(Cl)cc3)nc3cc(F)c(F)cc32)cc1` (stereo not drawn) [Example 140, 4-{2-[2-(4-Chloro-phenyl)-5,6-difluoro-benzoimidazol-1-yl]-2-cyclohexyl-ethylsulfanyl}-benzoic acid], the half-inhibitory concentration (IC50) is 70 nM.

Regarding `O=C(O)c1cnc(OCC(C2CCCCC2)n2c(-c3ccc(Cl)cc3)nc3cc(F)c(F)cc32)c2ccsc12` (stereo not drawn) [Example 26, 4-{2-[2-(4-Chloro-phenyl)-5,6-difluoro-benzoimidazol-1-yl]-2-cyclohexyl-ethoxy}-thieno[3,2-c]pyridine-7-carboxylic acid], the 50% inhibitory concentration (IC50) is 20 nM.

On to `Cc1cc(-c2nnn[nH]2)cc(C)c1OCC(C1CCCCC1)n1c(-c2ccc(Cl)cc2)nc2cc(F)c(F)cc21` (single isomer, unassigned; (-)) [Example 71, (−)-2-(4-Chloro-phenyl)-1-{1-cyclohexyl-2-[2,6-dimethyl-4-(1H-tetrazol-5-yl)-phenoxy]-ethyl}-5,6-difluoro-1H-benzoimidazole], for which the concentration for half-maximal inhibition (IC50) stood at 60 nM.

On to `O=C(O)c1cnc(OCC(C2CCCCC2)n2c(-c3ccc(Cl)cc3)nc3cc(F)c(F)cc32)c(Br)c1` (stereo not drawn) [Example 114, 5-Bromo-6-{2-[2-(4-chloro-phenyl)-5,6-difluoro-benzoimidazol-1-yl]-2-cyclohexyl-ethoxy}-nicotinic acid], for which the 50% inhibitory concentration (IC50) is 60 nM.

For `O=C(O)C1(Oc2ccc(OCC(C3CCCCC3)n3c(-c4ccc(Cl)cc4)nc4cc(F)c(F)cc43)nc2)CC1` (stereo not drawn) [Example 50, 1-(6-{2-[2-(4-Chloro-phenyl)-5,6-difluoro-benzoimidazol-1-yl]-2-cyclohexyl-ethoxy}-pyridin-3-yloxy)-cyclopropanecarboxylic acid], the IC50 was 100 nM.

Take `O=C(O)c1ccc(OCC(C2CCCCCC2)n2c(-c3ccc(Cl)cc3)nc3cc(F)c(F)cc32)nc1` (stereo not drawn) [Example 130, 6-{2-[2-(4-Chloro-phenyl)-5,6-difluoro-benzoimidazol-1-yl]-2-cycloheptyl-ethoxy}-nicotinic acid]: the IC50 came to 300 nM.

For the compound `O=C(O)c1cc(F)c(OCC(C2CCCCCC2)n2c(-c3ccc(Cl)cc3)nc3cc(F)c(F)cc32)c(F)c1` (single isomer, unassigned; (-)) [Example 132, (−)-4-{2-[2-(4-Chloro-phenyl)-5,6-difluoro-benzoimidazol-1-yl]-2-cycloheptyl-ethoxy}-3,5-difluoro-benzoic acid], the half-inhibitory concentration (IC50) was 10 nM.

With `Fc1cc2nc(-c3ccc(Cl)cc3)n(C(COc3ccc(-c4nnn[nH]4)cn3)C3CCCCC3)c2cc1F` (single isomer, unassigned; (+)) [Example 62, (+)-2-(4-Chloro-phenyl)-1-{1-cyclohexyl-2-[5-(1H-tetrazol-5-yl)-pyridin-2-yloxy]-ethyl}-5,6-difluoro-1H-benzoimidazole], the IC50 is 200 nM.

With `O=C(O)c1ccc(CCC(C2CCCCC2)n2c(-c3ccccc3)nc3cc(F)c(F)cc32)cc1` (single isomer, unassigned; (-)) [Example 143, (−)-4-[3-Cyclohexyl-3-(5,6-difluoro-2-phenyl-benzoimidazol-1-yl)-propyl]-benzoic acid], the 50% inhibitory concentration (IC50) worked out at 3 nM.

Regarding `Cc1c(OCC(C2CCCCC2)n2c(-c3ccc(Cl)cc3)nc3cc(F)c(F)cc32)cccc1C(=O)O` (stereo not drawn) [Example 17, 3-{2-[2-(4-Chloro-phenyl)-5,6-difluoro-benzoimidazol-1-yl]-2-cyclohexyl-ethoxy}-2-methyl-benzoic acid], the 50% inhibitory concentration (IC50) was found to be 200 nM.

Turning to `O=C(O)c1ccc(COCC(C2CCCCC2)n2c(-c3ccc(Cl)cc3)nc3cc(F)c(F)cc32)c(F)c1` (single isomer, unassigned; (-)) [Example 65, (−)-4-{2-[2-(4-Chloro-phenyl)-5,6-difluoro-benzoimidazol-1-yl]-2-cyclohexyl-ethoxymethyl}-3-fluoro-benzoic], the half-maximal inhibitory concentration (IC50) is 200 nM.

In the case of `Fc1cc2nc(-c3ccc(Cl)cc3)n(C(COc3ccc(-c4nnn[nH]4)cc3F)C3CCCCC3)c2cc1F` (single isomer, unassigned; (-)) [Example 81, (−)-2-(4-Chloro-phenyl)-1-{1-cyclohexyl-2-[2-fluoro-4-(1H-tetrazol-5-yl)-phenoxy]-ethyl}-5,6-difluoro-1H-benzoimidazole], the IC50 stood at 10 nM.

For `O=C(O)c1cnc(OCC(C2CCCCC2)n2c(-c3ccc(Cl)cc3)nc3cc(F)c(F)cc32)c(Cl)c1` (single isomer, unassigned; (+)) [Example 23, (+)-5-Chloro-6-{2-[2-(4-chloro-phenyl)-5,6-difluoro-benzoimidazol-1-yl]-2-cyclohexyl-ethoxy}-nicotinic acid], the concentration for half-maximal inhibition (IC50) worked out at 20 nM.

Turning to `COc1ccc(-c2nc3cc(F)c(F)cc3n2C(COc2c(F)cc(-c3nnn[nH]3)cc2F)C2CCCCC2)c(OC)n1` (stereo not drawn) [Example 129, 1-{1-Cyclohexyl-2-[2,6-difluoro-4-(1H-tetrazol-5-yl)-phenoxy]-ethyl}-2-(2,6-dimethoxy-pyridin-3-yl)-5,6-difluoro-1H-benzoimidazole], the IC50 came to 20 nM.

On to `O=C(O)c1ccc(OCC(C2CCCCC2)n2c(-c3ccc(Cl)cc3)nc3cc(F)c(F)cc32)nc1` (single isomer, unassigned; (+)) [Example 20, (+)-6-{2-[2-(4-Chloro-phenyl)-5,6-difluoro-benzoimidazol-1-yl]-2-cyclohexyl-ethoxy}-nicotinic acid], for which the IC50 worked out at 30 nM.

In general, IC50 refers to the midpoint of a concentration-inhibition curve.
